Broadly, the IC50 is the midpoint of a concentration-inhibition curve. Broadly, the Kd is the concentration at which binding is half-saturated. For orientation: AUC(0-inf) means the area under the concentration-time curve extrapolated to infinity. Read a low AUC(0-inf) as low exposure. The term AUC(0-t) denotes exposure summed from dosing to a finite time, without extrapolation to infinity. What is called half-life is the time in which the quantity being followed falls by half. A higher half-life goes with slow loss. As usually defined, the Cmax is the maximum level reached in the sampled fluid or tissue. The bioavailability is the share of a dose that reaches the circulation, judged against a reference dose that is usually intravenous. A lower bioavailability goes with poor availability. Broadly, the clearance is the volume of plasma or blood freed of the substance per unit of time. Low readings indicate inefficient removal, high ones efficient removal.

The structures appear in SMILES notation.

Consider 23 compounds from ChEMBL document CHEMBL4354801, “Design, Synthesis, and Structure-Activity Relationships of 1,2,3-Triazole Benzenesulfonamides as New Selective Leucine-Zipper and Sterile-α Motif Kinase (ZAK) Inhibitors” (J Med Chem, 2020).

Series [1] has as its target T1, Mitogen-activated protein kinase kinase kinase 20 (Homo sapiens, UniProt Q9NYL2). The series is described as follows: Inhibition of N-terminal GST-tagged recombinant human full-length ZAK expressed in baculovirus infected Sf9 insect cells using MBP as substrate after 30 mins by ADP-Glo assay. A general note: ADP-Glo turns the ADP formed in a reaction into a luminescent signal.

Series [2] deals with Serine/threonine-protein kinase B-raf (Homo sapiens, UniProt P15056, V600E). In words: Inhibition of recombinant human B-RAF V600E mutant using Ser/Thr3 as substrate after 1 hr by FRET-based Z'-Lyte assay.
In series [3] the target is T2, Tyrosine-protein kinase ABL1 (Homo sapiens, UniProt P00519). In words: Inhibition of human ABL1.
Series [4] has as its target T1, Mitogen-activated protein kinase kinase kinase 20. In words: Binding affinity to ATP-binding site of human ZAK expressed in Escherichia coli by active site-dependent competition binding assay.
Series [5] has the same target. The series is described as follows: Binding affinity to human ZAK.
In series [6] the target is T2, Tyrosine-protein kinase ABL1. The series is described as follows: Binding affinity to human ABL1.
Series [7] addresses Tyrosine-protein kinase Blk (Homo sapiens, UniProt P51451). The series is described as follows: Binding affinity to human BLK.
Series [8] addresses Receptor-type tyrosine-protein kinase FLT3 (Homo sapiens, UniProt P36888, F691L). In words: Binding affinity to human FLT3 F691L mutant.
The target in series [9] is Tyrosine-protein kinase Lck (Homo sapiens, UniProt P06239). The series is described as follows: Binding affinity to human LCK.
Another series deals with LIM domain kinase 1 (Homo sapiens, UniProt P53667). In words: Binding affinity to human LIMK1.
Another series addresses LIM domain kinase 2 (Homo sapiens, UniProt P53671). The series is described as follows: Binding affinity to human LIMK2.
The target in series [10] is Receptor-interacting serine/threonine-protein kinase 2 (Homo sapiens, UniProt O43353). The series is described as follows: Binding affinity to human RIPK2.
Series [11] can be described thus: AUC (0 to infinity) in Sprague-Dawley rat at 10 mg/kg, po by HPLC/MS analysis. Details: dose 10 mg/kg, route oral, time infinity; call rule not given here. The conditions noted are these: in vivo. In kind it is ADME, organism-based.
A short description of series [12]: AUC (0 to t) in Sprague-Dawley rat at 10 mg/kg, po by HPLC/MS analysis. The format is ADME, organism-based. The conditions noted are these: in vivo.
A short description of series [13]: Half life in Sprague-Dawley rat at 10 mg/kg, po by HPLC/MS analysis. The format is ADME, organism-based. The conditions noted are these: in vivo.
Series [14] is described as follows: Cmax in Sprague-Dawley rat at 10 mg/kg, po by HPLC/MS analysis. In kind it is ADME, organism-based. Also on record: dose 10 mg/kg, route oral. To be noted: in vivo.
Series [15] can be described thus: Oral bioavailability in Sprague-Dawley rat at 10 mg/kg by HPLC/MS analysis. To be noted: in vivo. The format is ADME, organism-based.
Series [16] in a line: AUC (0 to infinity) in Sprague-Dawley rat at 2.5 mg/kg, iv by HPLC/MS analysis. The format is ADME, organism-based. Also on record: dose 2.5 mg/kg, route intravenous, time infinity. To be noted: in vivo.
Series [17] in a line: AUC (0 to t) in Sprague-Dawley rat at 2.5 mg/kg, iv by HPLC/MS analysis. To be noted: in vivo. The format is ADME, organism-based.
Series [18] is described as follows: Half life in Sprague-Dawley rat at 2.5 mg/kg, iv by HPLC/MS analysis. In kind it is ADME, organism-based. To be noted: in vivo.
A short description of series [19]: Cmax in Sprague-Dawley rat at 2.5 mg/kg, iv by HPLC/MS analysis. In kind it is ADME, organism-based. Details: dose 2.5 mg/kg, route intravenous. To be noted: in vivo.
Series [20] is described as follows: Clearance in Sprague-Dawley rat at 2.5 mg/kg, iv by HPLC/MS analysis. The format is ADME, organism-based. The conditions noted are these: in vivo.
The test system of series [21] is Rattus norvegicus. The series is described as follows: Anti-hypertrophic cardiomyopathy activity in SHR rat assessed as whole heart weight level elevation at 2.5 mg/kg, po once daily for 8 weeks (reference value: 1.23 +/- 0.006 g). In kind it is functional.
Series [22] deals with Rattus norvegicus. The series is described as follows: Anti-hypertrophic cardiomyopathy activity in SHR rat assessed as left ventricular weight level elevation at 2.5 mg/kg, po once daily for 8 weeks (reference value: 0.89 +/- 0.005 g). In kind it is functional.
Series [23] concerns Rattus norvegicus. The series is described as follows: Anti-hypertrophic cardiomyopathy activity in SHR rat assessed as whole heart weight level elevation at 10 mg/kg, po once daily for 8 weeks (reference value: 1.23 +/- 0.006 g). The format is functional.
Series [24] concerns Rattus norvegicus. In words: Anti-hypertrophic cardiomyopathy activity in SHR rat assessed as left ventricular weight level elevation at 10 mg/kg, po once daily for 8 weeks (reference value: 0.89 +/- 0.005 g). The format is functional.
Series [25] is described as follows: Effect on ZAKalpha protein expression in rat H9C2 cells by Western blot analysis. (In general: A western blot detects proteins with antibodies after separation by electrophoresis.)

T1 sequence (Q9NYL2 whole entry): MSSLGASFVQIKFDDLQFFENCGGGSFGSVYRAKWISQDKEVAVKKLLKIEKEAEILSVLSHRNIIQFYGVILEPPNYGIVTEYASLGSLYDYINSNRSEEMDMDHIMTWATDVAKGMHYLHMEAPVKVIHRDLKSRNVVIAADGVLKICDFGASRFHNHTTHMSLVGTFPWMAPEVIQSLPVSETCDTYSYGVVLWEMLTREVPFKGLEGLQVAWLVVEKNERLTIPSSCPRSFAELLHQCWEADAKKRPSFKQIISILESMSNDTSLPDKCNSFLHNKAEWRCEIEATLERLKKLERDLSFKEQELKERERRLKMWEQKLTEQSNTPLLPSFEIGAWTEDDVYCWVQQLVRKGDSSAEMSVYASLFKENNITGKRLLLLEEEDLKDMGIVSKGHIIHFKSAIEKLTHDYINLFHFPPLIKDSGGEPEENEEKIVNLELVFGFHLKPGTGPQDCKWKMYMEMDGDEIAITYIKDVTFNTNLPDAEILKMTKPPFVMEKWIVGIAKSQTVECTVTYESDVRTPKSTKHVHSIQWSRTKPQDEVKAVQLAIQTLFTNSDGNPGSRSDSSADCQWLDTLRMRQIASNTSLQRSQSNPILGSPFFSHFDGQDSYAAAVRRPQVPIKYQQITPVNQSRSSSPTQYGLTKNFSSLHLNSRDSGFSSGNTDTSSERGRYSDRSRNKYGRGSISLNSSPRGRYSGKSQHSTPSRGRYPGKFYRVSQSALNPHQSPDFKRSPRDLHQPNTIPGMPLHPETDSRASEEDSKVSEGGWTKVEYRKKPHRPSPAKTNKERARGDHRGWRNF
Chain of Serine/threonine-protein kinase B-raf (P15056 2-766 V600E limits assumed): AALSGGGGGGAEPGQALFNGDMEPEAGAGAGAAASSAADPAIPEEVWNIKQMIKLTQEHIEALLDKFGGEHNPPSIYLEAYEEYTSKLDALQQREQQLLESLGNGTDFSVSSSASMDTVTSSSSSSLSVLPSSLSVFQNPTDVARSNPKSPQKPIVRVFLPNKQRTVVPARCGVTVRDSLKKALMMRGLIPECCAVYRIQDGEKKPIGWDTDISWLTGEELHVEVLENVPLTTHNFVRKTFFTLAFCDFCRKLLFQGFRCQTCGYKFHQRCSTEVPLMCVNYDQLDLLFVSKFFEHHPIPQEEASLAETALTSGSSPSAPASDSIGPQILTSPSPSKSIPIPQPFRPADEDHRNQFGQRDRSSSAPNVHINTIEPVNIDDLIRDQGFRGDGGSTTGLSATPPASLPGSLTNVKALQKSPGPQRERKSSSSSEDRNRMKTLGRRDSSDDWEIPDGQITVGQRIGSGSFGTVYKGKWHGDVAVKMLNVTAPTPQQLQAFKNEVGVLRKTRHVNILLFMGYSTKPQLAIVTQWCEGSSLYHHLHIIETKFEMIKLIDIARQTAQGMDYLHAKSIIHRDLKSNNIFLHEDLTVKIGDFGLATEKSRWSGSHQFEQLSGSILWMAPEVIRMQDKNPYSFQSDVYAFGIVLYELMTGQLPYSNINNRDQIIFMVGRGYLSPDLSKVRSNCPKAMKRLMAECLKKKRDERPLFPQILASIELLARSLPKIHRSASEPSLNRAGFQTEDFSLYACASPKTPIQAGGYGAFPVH
T2 sequence (P00519 whole entry): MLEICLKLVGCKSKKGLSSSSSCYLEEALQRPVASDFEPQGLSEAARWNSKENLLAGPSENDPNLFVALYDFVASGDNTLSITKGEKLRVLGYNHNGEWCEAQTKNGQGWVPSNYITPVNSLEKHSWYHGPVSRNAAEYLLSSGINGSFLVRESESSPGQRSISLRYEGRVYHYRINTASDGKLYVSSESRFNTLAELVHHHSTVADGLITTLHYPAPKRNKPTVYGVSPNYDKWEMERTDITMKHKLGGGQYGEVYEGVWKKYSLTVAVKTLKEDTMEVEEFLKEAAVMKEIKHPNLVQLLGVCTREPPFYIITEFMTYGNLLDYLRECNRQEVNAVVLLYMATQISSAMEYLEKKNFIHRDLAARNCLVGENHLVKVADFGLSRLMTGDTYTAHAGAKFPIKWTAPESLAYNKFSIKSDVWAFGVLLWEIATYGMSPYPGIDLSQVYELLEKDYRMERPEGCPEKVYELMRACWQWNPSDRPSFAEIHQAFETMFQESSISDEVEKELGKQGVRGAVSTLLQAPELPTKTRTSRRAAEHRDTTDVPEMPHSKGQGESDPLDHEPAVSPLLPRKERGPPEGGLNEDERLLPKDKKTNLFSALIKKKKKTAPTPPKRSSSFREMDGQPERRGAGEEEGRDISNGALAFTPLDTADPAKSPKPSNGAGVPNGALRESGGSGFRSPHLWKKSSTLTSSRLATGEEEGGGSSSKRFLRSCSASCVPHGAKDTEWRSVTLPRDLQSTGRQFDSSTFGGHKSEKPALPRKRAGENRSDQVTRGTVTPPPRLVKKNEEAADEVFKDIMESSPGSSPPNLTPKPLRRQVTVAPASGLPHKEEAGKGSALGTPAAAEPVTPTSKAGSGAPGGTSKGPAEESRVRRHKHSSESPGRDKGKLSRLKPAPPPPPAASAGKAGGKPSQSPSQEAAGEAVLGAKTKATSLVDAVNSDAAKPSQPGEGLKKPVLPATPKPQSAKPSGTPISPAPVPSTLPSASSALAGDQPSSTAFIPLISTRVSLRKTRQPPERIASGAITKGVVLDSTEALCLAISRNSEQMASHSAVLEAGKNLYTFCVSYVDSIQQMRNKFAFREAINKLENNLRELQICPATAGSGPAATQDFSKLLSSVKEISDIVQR
Chain of LIM domain kinase 1 (P53667 whole entry, the tested form may be a part): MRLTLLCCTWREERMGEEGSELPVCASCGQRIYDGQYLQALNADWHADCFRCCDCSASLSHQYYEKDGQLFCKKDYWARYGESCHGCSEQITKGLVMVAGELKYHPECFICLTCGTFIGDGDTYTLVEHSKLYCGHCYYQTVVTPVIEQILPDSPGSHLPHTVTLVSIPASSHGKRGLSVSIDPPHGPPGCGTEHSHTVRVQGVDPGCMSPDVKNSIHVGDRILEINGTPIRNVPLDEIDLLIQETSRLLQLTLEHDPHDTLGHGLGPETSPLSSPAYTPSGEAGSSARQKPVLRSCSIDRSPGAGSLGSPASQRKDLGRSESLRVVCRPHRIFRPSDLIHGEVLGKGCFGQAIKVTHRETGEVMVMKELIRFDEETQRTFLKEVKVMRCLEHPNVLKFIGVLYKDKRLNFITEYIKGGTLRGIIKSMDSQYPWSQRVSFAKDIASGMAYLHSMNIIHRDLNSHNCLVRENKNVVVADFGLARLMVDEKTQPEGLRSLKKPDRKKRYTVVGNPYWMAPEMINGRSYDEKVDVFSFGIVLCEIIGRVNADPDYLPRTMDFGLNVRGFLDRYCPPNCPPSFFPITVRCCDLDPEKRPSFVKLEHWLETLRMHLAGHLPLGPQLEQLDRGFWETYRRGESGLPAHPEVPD
Chain of LIM domain kinase 2 (P53671 whole entry, the tested form may be a part): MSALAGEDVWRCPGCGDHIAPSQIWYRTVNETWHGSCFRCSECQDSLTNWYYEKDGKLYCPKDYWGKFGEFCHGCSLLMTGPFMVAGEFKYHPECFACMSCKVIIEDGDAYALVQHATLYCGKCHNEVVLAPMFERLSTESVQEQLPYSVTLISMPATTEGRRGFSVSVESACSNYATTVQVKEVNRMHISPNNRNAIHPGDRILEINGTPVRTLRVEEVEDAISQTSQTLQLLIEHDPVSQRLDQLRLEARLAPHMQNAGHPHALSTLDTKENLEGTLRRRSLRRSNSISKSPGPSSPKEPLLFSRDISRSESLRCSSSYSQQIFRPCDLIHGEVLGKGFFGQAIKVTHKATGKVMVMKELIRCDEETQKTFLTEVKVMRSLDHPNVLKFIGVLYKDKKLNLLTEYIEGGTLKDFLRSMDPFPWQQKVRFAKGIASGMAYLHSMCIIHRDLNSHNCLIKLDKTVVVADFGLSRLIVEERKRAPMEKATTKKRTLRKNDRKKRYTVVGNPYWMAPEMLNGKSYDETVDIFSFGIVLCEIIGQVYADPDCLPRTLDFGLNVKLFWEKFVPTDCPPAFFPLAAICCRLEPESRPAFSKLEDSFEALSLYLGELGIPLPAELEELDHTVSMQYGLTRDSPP
Chain of Receptor-interacting serine/threonine-protein kinase 2 (O43353 whole entry): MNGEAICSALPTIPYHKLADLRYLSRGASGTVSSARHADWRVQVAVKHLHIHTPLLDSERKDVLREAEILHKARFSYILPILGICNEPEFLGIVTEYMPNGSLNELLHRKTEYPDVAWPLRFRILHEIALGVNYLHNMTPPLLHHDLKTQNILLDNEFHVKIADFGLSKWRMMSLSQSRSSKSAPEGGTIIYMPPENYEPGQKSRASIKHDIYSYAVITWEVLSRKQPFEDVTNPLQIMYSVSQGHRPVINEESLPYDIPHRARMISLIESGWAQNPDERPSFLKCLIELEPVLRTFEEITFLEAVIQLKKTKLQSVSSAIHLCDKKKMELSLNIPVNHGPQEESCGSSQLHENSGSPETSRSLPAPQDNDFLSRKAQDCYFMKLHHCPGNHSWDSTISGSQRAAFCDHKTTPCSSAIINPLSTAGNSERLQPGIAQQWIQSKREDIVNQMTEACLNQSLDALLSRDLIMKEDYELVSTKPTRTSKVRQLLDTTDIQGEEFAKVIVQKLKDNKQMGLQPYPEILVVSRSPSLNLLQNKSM
Chain of Tyrosine-protein kinase Blk (P51451 whole entry): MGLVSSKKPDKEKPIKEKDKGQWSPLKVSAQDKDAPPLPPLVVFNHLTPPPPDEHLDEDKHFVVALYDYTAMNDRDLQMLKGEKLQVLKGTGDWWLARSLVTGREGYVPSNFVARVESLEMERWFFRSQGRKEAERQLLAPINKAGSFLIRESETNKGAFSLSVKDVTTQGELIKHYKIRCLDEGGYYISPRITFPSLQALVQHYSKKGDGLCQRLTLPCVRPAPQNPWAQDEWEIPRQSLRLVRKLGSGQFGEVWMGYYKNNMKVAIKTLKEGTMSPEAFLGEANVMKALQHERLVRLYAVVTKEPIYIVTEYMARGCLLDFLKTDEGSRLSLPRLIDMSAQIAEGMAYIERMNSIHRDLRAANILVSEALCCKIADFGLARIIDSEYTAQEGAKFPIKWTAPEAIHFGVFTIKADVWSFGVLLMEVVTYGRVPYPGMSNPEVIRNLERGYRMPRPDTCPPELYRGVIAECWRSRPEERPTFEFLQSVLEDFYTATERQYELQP

With `Nc1ncc(-c2cn(-c3c(F)ccc(NS(=O)(=O)c4cccc(Cl)c4)c3F)nn2)cn1`, the results for the IC50 in series [1] and in [2] were 8.9 nM and over 1000 nM, respectively.
In the case of `COc1n[nH]c2ncc(-c3cn(-c4cccc(NS(=O)(=O)c5cccc(Cl)c5)c4)nn3)cc12`, the IC50 in [1] is 24.7 nM; in [2] it was over 1000 nM.
On the same counts, the results for `COc1n[nH]c2ncc(-c3cn(-c4c(F)ccc(NS(=O)(=O)c5ccc6ccccc6c5)c4F)nn3)cc12` are 4.5 nM and 856 nM.
For the compound `COc1n[nH]c2ncc(-c3cn(-c4c(F)ccc(NS(=O)(=O)c5cccc(-c6ccccc6)c5)c4F)nn3)cc12`, the IC50 in [3] was 156 nM; in [1], 4 nM; in [2], over 1000 nM. The Kd in series [4] worked out at 8 nM; in series [5], 8 nM; in series [6], 15 nM; in [7], 190 nM; in [8] it was 530 nM; in series [9], 160 nM. Also, the Kd at LIM domain kinase 1 amounted to 23 nM; on LIM domain kinase 2, 63 nM; in [10], 57 nM. Also, the values for the AUC(0-inf) in series [11] and in series [16] were 71800 ng·h/mL and 27900 ng·h/mL, respectively. The AUC(0-t) in [12] was determined as 71600 ng·h/mL; in series [17], 27400 ng·h/mL. Also, the half-life in series [13] was 1.7 h; in [18], 1.6 h. In addition, the Cmax in [14] came out at 16400 ng/mL; in series [19] it was 34200 ng/mL. This compound came in with a bioavailability in series [15] of 65.3%. In addition, the clearance in [20] is 1.53 mL/min/kg. The Activity with Rattus norvegicus [21] was 1.18 g; in the series on Rattus norvegicus [22], 0.82 g; in the series on Rattus norvegicus [23], 1.13 g; in the series with Rattus norvegicus [24], 0.78 g; in series [25], “Non-Toxic”.
On to `COc1n[nH]c2ncc(-c3nc(-c4c(F)ccc(NS(=O)(=O)c5cccc(Cl)c5)c4F)no3)cc12`, for which the values for the IC50 in series [1] and in [2] were 29 nM and over 1000 nM, respectively.
In the same order, the values of `COc1n[nH]c2ncc(-c3cn(-c4c(F)ccc(NC(=O)c5cccc(Cl)c5)c4F)nn3)cc12` are 54.3 nM and 11.4 nM.
On the same counts, the results for `COc1n[nH]c2ncc(-c3nnc(-c4c(F)ccc(NS(=O)(=O)c5cccc(Cl)c5)c4F)o3)cc12` are 63.3 nM and over 1000 nM.
On the same counts, the results for `Nc1ccc(-c2cn(-c3c(F)ccc(NS(=O)(=O)c4cccc(Cl)c4)c3F)nn2)cn1` are 46.2 nM and over 1000 nM.
`COc1n[nH]c2ncc(-c3cn(-c4c(F)ccc(NS(=O)(=O)c5cccc6ccccc56)c4F)nn3)cc12`: the results for the half-maximal inhibitory concentration (IC50) in series [1] and in series [2] were 4.2 nM and 126 nM, respectively.
With `COc1n[nH]c2ncc(-c3cn(-c4c(F)ccc(NS(=O)(=O)c5cccc(C#N)c5)c4F)nn3)cc12`, the IC50 in series [1] worked out at 3.3 nM; in series [2] it was 470 nM.
On the same counts, the results for `COc1n[nH]c2ncc(-c3cn(-c4c(F)ccc(NS(=O)(=O)c5cccc(C(C)C)c5)c4F)nn3)cc12` are 6.9 nM and 190 nM.
With `COc1n[nH]c2ncc(C#Cc3c(F)ccc(NS(=O)(=O)c4cccc(Cl)c4)c3F)cc12`, the figures for the IC50 in series [1] and in series [2] were 14.7 nM and over 1000 nM, respectively.
On the same counts, the results for `COc1n[nH]c2ncc(-c3cn(-c4c(F)ccc(NS(=O)(=O)c5cccc(Cl)c5)c4F)nn3)cc12` are 1.9 nM and 198 nM.
Regarding `COc1n[nH]c2ncc(-c3ncc(-c4c(F)ccc(NS(=O)(=O)c5cccc(Cl)c5)c4F)[nH]3)cc12`, the concentration for half-maximal inhibition (IC50) was 983 nM in [1] and over 1000 nM in [2].
In the same order, the values of `COc1n[nH]c2ncc(-c3cn(-c4cc(NS(=O)(=O)c5cccc(Cl)c5)ccc4F)nn3)cc12` are 5.7 nM and 334 nM.
Turning to `COc1n[nH]c2ncc(-c3cn(-c4c(F)ccc(NS(=O)(=O)c5cccc(C)c5)c4F)nn3)cc12`, the results for the IC50 in [1] and in series [2] were 4.4 nM and 453 nM, respectively.
On the same counts, the results for `COc1n[nH]c2ncc(-c3cn(-c4cccc(NS(=O)(=O)c5cccc(Cl)c5)c4F)nn3)cc12` are 3 nM and 795 nM.
In the same order, the values of `COc1n[nH]c2ncc(-c3cn(-c4c(Cl)ccc(NS(=O)(=O)c5cccc(Cl)c5)c4Cl)nn3)cc12` are 413 nM and 436 nM.
On the same counts, the results for `COc1n[nH]c2ncc(-c3cn(-c4c(F)ccc(NC(=O)Nc5cccc(Cl)c5)c4F)nn3)cc12` are 53 nM and 51.6 nM.
Consider `COc1n[nH]c2ncc(-c3cn(-c4c(F)ccc(NS(=O)(=O)c5cccc(Br)c5)c4F)nn3)cc12`, for which the IC50 in [1] turned out to be 2.1 nM; in [2], 272 nM.
In the same order, the values of `COc1cccc(S(=O)(=O)Nc2ccc(F)c(-n3cc(-c4cnc5[nH]nc(OC)c5c4)nn3)c2F)c1` are 2.3 nM and 272 nM.
As for `COc1n[nH]c2ncc(-c3cn(-c4c(F)ccc(NC(=O)Cc5cccc(Cl)c5)c4F)nn3)cc12`, the IC50 stood at 85.7 nM in series [1] and 83.1 nM in series [2].
In the same order, the values of `COc1n[nH]c2ncc(-c3cn(-c4c(F)ccc(NS(=O)(=O)c5ccccc5)c4F)nn3)cc12` are 3.8 nM and 39 nM.
